Patent US5124146A, “Differential delivery of therapeutic agents across the blood brain barrier” (The State of Oregon Acting by and through the State Board …, priority 1991, dated 1992)
Values joined by “and” are separate entries in the source; they are usually repeats but may differ in a detail not shown here. Identical values can stand only once.

How the values were obtained:
[1] = injected directly into the rat brain; cited from earlier work
[2] = percent clearance of activity from serum by perfusion; format: in vivo, Sprague-Dawley rat; conditions: for C1: percent clearance of activity from serum: individual rat, postperfusion/preperfusion × 100
Procedure: Subsequently, dosages of ^125 I-gentamicin were administered intravenously.
C1: Percent clearance of activity from serum

antigentamicin antibody = experiment: precipitable radioactivity (% bound) in tissue and serum after antigentamicin antibody (immune serum); format: in vivo
Description: (§1) Pre: Precipitable radioactivity from serum prior to antibody
(§2) Post: Precipitable radioactivity from serum after antibody administration
(§3) PPer: Precipitable radioactivity from serum after perfusion of rat
(§4) % Bound: Percent precipitable radioactivity from tissue sample

serum proteins = experiment: non-specific precipitation/binding of gentamicin to serum proteins and tissue (pre-antibody serum, or non-immune serum); format: in vivo, Sprague-Dawley rat; conditions: non-immune serum, pre and post serum
Description: as §1, §2, §3, §4

| Compound | effect on BBB permeability [1] | C1: percent clearance of activity from serum ([2]; Immune serum) | C1: percent clearance of activity from serum, mean value ([2]; Immune serum) [%] | C1: percent clearance of activity from serum ([2]; Non immune serum) | C1: percent clearance of activity from serum, mean value ([2]; Non immune serum) [%] | % Bound: percent precipitable radioactivity from tissue sample, LH (non abscess bearing hemisphere) (antigentamicin antibody; individual rat) | % Bound, Post: precipitable radioactivity from serum after antibody administration (antigentamicin antibody; individual rat, 15 minutes after antibody) | % Bound, P-Per: precipitable radioactivity from serum after perfusion of rat (antigentamicin antibody; individual rat, after perfusion) | % Bound (tissue), AB (abscess), mean value (antigentamicin antibody; mean) [%] | % Bound (tissue), LH (non abscess bearing hemisphere), mean value (antigentamicin antibody; mean) [%] | % Bound, Post: serum precipitation after antibody, mean value (antigentamicin antibody; mean, 15 minutes after antibody) [%] | % Bound, P-Per: serum precipitation after perfusion, mean value (antigentamicin antibody; mean, after perfusion) [%] | non-specific precipitation with serum proteins (in words) (serum proteins) |
| --- | --- | --- | --- | --- | --- | --- | --- | --- | --- | --- | --- | --- | --- |
| CCCCC/C=C\C/C=C\C/C=C\C/C=C\CCCC(=O)O [arachidonic acid] | increase BBB permeability | – | – | – | – | – | – | – | – | – | – | – | – |
| gentamicin | – | 99% and 97% and 92% and 95% and 94% and 96% | 96 | 84% and 86% and 85% | 85 | 49% and 55% and 52% and 41% and 50% | 97% and 96% and 94% | 75% and 70% and 79% and 77% | 56 | 51 | 96 | 70 | nonspecifically precipitates with serum proteins |
